Test results from patent EP0500835B1, “A NOVEL QUINOLONE CARBOXYLIC ACID DERIVATIVE” (DAEWOONG PHARMACEUTICAL CO., LTD., priority 1990, dated 1992).
In brackets after ≈: the same amount, converted by molar mass. Where two headings read alike, the source gives them in different places.

Columns and labels:
Type in all cases: cell-based
E. coli O 55 = test: In vitro antibacterial activity, MIC by agar dilution method; settings: Escherichia coli, O55, read-out: In vitro Antibacterial Activity, MIC
Procedure: (§1) The typical examples of the present compounds were tested for antimicrobial activity in vitro against twenty strains of Gram-positive and Gram-negative microorganisms.
(§2) The minimum inhibitory concentrations were determined according to the agar dilution method recommended by Japan Society of Chemotherapy[Chemotherapy., 29, 76 (1981)].

E. cloacae P99 = test: as above; settings: Enterobacter cloacae, P99, read-out: In vitro Antibacterial Activity, MIC
Procedure: as §1, §2

E. cloacae 1321E = test: as above; settings: Enterobacter cloacae, 1321E, read-out: In vitro Antibacterial Activity, MIC
Procedure: as §1, §2

S. typhimurium = test: as above; settings: Salmonella enterica, TYPHIMURIUM, read-out: In vitro Antibacterial Activity, MIC
Procedure: as §1, §2

K. aerogenes 1522E = test: as above; settings: Klebsiella aerogenes, 1522E, read-out: In vitro Antibacterial Activity, MIC
Procedure: as §1, §2

S. pyogenes A 77 = test: as above; settings: Streptococcus pyogenes, A77, read-out: In vitro Antibacterial Activity, MIC
Procedure: as §1
(§3) The numerals in the table 1 show minimum inhibitory concentrations(MIC in µg/ml). The minimum inhibitory concentrations were determined according to the agar dilution method recommended by Japan Society of Chemotherapy[Chemotherapy., 29, 76 (1981)].

E. coli 1507E = test: as above; settings: Escherichia coli, read-out: In vitro Antibacterial Activity, MIC
Procedure: as §1, §3

S. aureus SG 511 = test: as above; settings: Staphylococcus aureus, SG511, read-out: In vitro Antibacterial Activity, MIC
Procedure: as §1, §3

E. coli TEM = test: as above; settings: Escherichia coli, read-out: In vitro Antibacterial Activity, MIC
Procedure: as §1, §3

P. aeruginosa 1771M = test: as above; settings: Pseudomonas aeruginosa, read-out: In vitro Antibacterial Activity, MIC
Procedure: as §1, §3

S. pyogenes A 308 = test: as above; settings: Streptococcus pyogenes
Procedure: as §1, §3

P. aeruginosa 1592E = test: as above; settings: Pseudomonas aeruginosa, 1592E, read-out: In vitro Antibacterial Activity, MIC
Procedure: as §1, §3

S. aureus 285 = test: as above; settings: Staphylococcus aureus, 285, read-out: In vitro Antibacterial Activity, MIC
Procedure: as §1, §3

P. aeruginosa 1771 = test: as above; settings: Pseudomonas aeruginosa, 1771, read-out: In vitro Antibacterial Activity, MIC
Procedure: as §1, §3

S. aureus 503 = test: as above; settings: Staphylococcus aureus, 503, read-out: In vitro Antibacterial Activity, MIC
Procedure: as §1, §3

P. aeruginosa 9027 = test: as above
Procedure: as §1, §3

E. coli DC 0 = test: as above; settings: Escherichia coli, DC0, read-out: In vitro Antibacterial Activity, MIC
Procedure: as §1, §3

S. faecium MD 86 = test: as above; settings: Enterococcus faecium
Procedure: as §1, §3

K. oxytoca 1082E = test: as above; settings: Klebsiella oxytoca, read-out: In vitro Antibacterial Activity, MIC
Procedure: as §1, §3

E. coli DC 2 = test: as above; settings: Escherichia coli
Procedure: as §1, §3

[1] = test system: Staphylococcus aureus 256E; test: Antibacterial activity for MRSA; settings: Staphylococcus aureus 256E (MRSA)
Procedure: (§4) The compound of example 2 was orally administered to determine the LD50 for a group of male mice. […] The antibacterial activity for MRSA(Methicillin Resistant Staphyloccocus Aureus) was tested by the compound of example 2.

[2] = test system: Saphylococcus aureus 692E; test: Antibacterial activity for MRSA; settings: Saphylococcus aureus 692E (MRSA)
Procedure: as §4

[3] = test system: Staphylococcus aureus 707E; test: Antibacterial activity for MRSA; settings: Staphylococcus aureus 707E (MRSA)
Procedure: as §4

[4] = test system: Staphylococcus aureus 706E; test: Antibacterial activity for MRSA; settings: Staphylococcus aureus 706E (MRSA)
Procedure: as §4

[5] = test system: Staphylococcus aureus 701E; test: Antibacterial activity for MRSA; settings: Staphylococcus aureus 701E (MRSA)
Procedure: as §4

[6] = test system: Staphylococcus aureus 121E; test: Antibacterial activity for MRSA; settings: Staphylococcus aureus 121E (MRSA)
Procedure: as §4

[7] = test system: Staphylococcus aureus 714E; test: Antibacterial activity for MRSA; settings: Staphylococcus aureus 714E (MRSA)
Procedure: as §4

[8] = test system: Staphylococcus aureus 208E; test: Antibacterial activity for MRSA; settings: Staphylococcus aureus 208E (MRSA)
Procedure: as §4

[9] = test system: Staphylococcus aureus 752E; test: Antibacterial activity for MRSA; settings: Staphylococcus aureus 752E (MRSA)
Procedure: as §4

[10] = test system: Staphylococcus aureus 695E; test: Antibacterial activity for MRSA; settings: Staphylococcus aureus 695E (MRSA)
Procedure: as §4

[11] = test system: Staphylococcus aureus 694E; test: Antibacterial activity for MRSA; settings: Staphylococcus aureus 694E (MRSA)
Procedure: as §4

[12] = test system: Staphylococcus aureus 711E; test: Antibacterial activity for MRSA; settings: Staphylococcus aureus 711E (MRSA)
Procedure: as §4

[13] = test system: Staphylococcus aureus 693E; test: Antibacterial activity for MRSA; settings: Staphylococcus aureus 693E (MRSA)
Procedure: as §4

[14] = test system: Staphylococcus aureus 88 E; test: Antibacterial activity for MRSA; settings: Staphylococcus aureus 88 E (MRSA)
Procedure: as §4

[15] = test system: Staphylococcus aureus 697E; test: Antibacterial activity for MRSA; settings: Staphylococcus aureus 697E (MRSA)
Procedure: as §4

[16] = test system: Staphylococcus aureus 705E; test: Antibacterial activity for MRSA; settings: Staphylococcus aureus 705E (MRSA)
Procedure: as §4

[17] = test system: Staphylococcus aureus 690E; test: Antibacterial activity for MRSA; settings: Staphylococcus aureus 690E (MRSA)
Procedure: as §4

[18] = test system: Staphylococcus aureus 703E; test: Antibacterial activity for MRSA; settings: Staphylococcus aureus 703E (MRSA)
Procedure: as §4

[19] = test system: Staphylococcus aureus 708E; test: Antibacterial activity for MRSA; settings: Staphylococcus aureus 708E (MRSA)
Procedure: as §4

CSCC1CCN(c2c(F)c(F)c3c(=O)c(C(=O)O)cn(C4CC4)c3c2F)C1 (stereo not drawn) [Example 3, 1-cyclpropyl-5,6,8-trifluoro-7-(3-methylthiomethylpyrrolidinyl)-1,4-dihydro-4-oxo-3-quinolinecarboxylic acid]
MIC (E. coli O 55): 0.195 µg/mL (≈ 0.473 µM)
MIC (E. cloacae P99): 0.391 µg/mL (≈ 0.948 µM)
MIC (E. cloacae 1321E): 0.391 µg/mL (≈ 0.948 µM)
MIC (S. typhimurium): 0.391 µg/mL (≈ 0.948 µM)
MIC (K. aerogenes 1522E): 0.781 µg/mL (≈ 1.89 µM)
MIC (S. pyogenes A 77): 1.56 µg/mL (≈ 3.79 µM)
MIC (E. coli 1507E; 1507E): 3.12 µg/mL (≈ 7.58 µM)
MIC (S. aureus SG 511): 0.008 µg/mL (≈ 0.0194 µM)
MIC (E. coli TEM): 3.12 µg/mL (≈ 7.58 µM)
MIC (P. aeruginosa 1771M; 1771M): 1.56 µg/mL (≈ 3.79 µM)
MIC (S. pyogenes A 308; A308, read-out: In vitro Antibacterial Activity, MIC): 0.781 µg/mL (≈ 1.89 µM)
MIC (P. aeruginosa 1592E): 3.12 µg/mL (≈ 7.58 µM)
MIC (S. aureus 285): 0.013 µg/mL (≈ 0.0315 µM)
MIC (P. aeruginosa 1771): 1.56 µg/mL (≈ 3.79 µM)
MIC (S. aureus 503): 0.007 µg/mL (≈ 0.017 µM)
MIC (P. aeruginosa 9027; Pseudomonas aeruginosa, 9027, read-out: In vitro Antibacterial Activity, MIC): 3.12 µg/mL (≈ 7.58 µM)
MIC (E. coli DC 0): 6.25 µg/mL (≈ 15.2 µM)
MIC (S. faecium MD 86; MD86, read-out: In vitro Antibacterial Activity, MIC): 0.781 µg/mL (≈ 1.89 µM)
MIC (K. oxytoca 1082E; 1082E): 0.098 µg/mL (≈ 0.238 µM)
MIC (E. coli DC 2; DC2, read-out: In vitro Antibacterial Activity, MIC): 3.12 µg/mL (≈ 7.58 µM)

O=C(O)c1cn(C2CC2)c2cc(N3CCNCC3)c(F)cc2c1=O [CIP, Ciprofloxacin, reference compound]
MIC (S. pyogenes A 77): 0.195 µg/mL (≈ 0.589 µM)
MIC (E. coli 1507E; E. coli 1507E, agar dilution method): 0.049 µg/mL (≈ 0.148 µM)
MIC (S. aureus SG 511): 0.195 µg/mL (≈ 0.589 µM)
MIC (E. coli TEM; E. coli TEM, agar dilution method): 0.098 µg/mL (≈ 0.296 µM)
MIC (P. aeruginosa 1771M; P. aeruginosa 1771M, agar dilution method): 0.049 µg/mL (≈ 0.148 µM)
MIC (S. pyogenes A 308; A308, S. pyogenes A 308, agar dilution method, read-out: In vitro Antibacterial Activity, MIC): 1.56 µg/mL (≈ 4.72 µM)
MIC (P. aeruginosa 1592E): 0.195 µg/mL (≈ 0.589 µM)
MIC (S. aureus 285): 0.195 µg/mL (≈ 0.589 µM)
MIC (P. aeruginosa 1771): 0.195 µg/mL (≈ 0.589 µM)
MIC (S. aureus 503): 0.391 µg/mL (≈ 1.18 µM)
MIC (P. aeruginosa 9027; Pseudomonas aeruginosa, P. aeruginosa 9027, agar dilution method, read-out: In vitro Antibacterial Activity, MIC): 0.098 µg/mL (≈ 0.296 µM)
MIC (E. coli DC 0): 0.195 µg/mL (≈ 0.589 µM)
MIC (S. faecium MD 86; MD86, S. faecium MD 86, agar dilution method, read-out: In vitro Antibacterial Activity, MIC): 0.781 µg/mL (≈ 2.36 µM)
MIC (K. oxytoca 1082E; K. oxytoca 1082E, agar dilution method): 0.002 µg/mL (≈ 0.00604 µM)
MIC (E. coli DC 2; DC2, E. coli DC 2, agar dilution method, read-out: In vitro Antibacterial Activity, MIC): 0.098 µg/mL (≈ 0.296 µM)
Antibacterial Activity for MRSA [1]: 0.391 µg/mL
Antibacterial Activity for MRSA [2]: 0.195 µg/mL
Antibacterial Activity for MRSA [3]: 0.391 µg/mL
Antibacterial Activity for MRSA [4]: 0.391 µg/mL
Antibacterial Activity for MRSA [5]: 0.391 µg/mL
Antibacterial Activity for MRSA [6]: 0.391 µg/mL
Antibacterial Activity for MRSA [7]: 0.195 µg/mL
Antibacterial Activity for MRSA [8]: 0.195 µg/mL
Antibacterial Activity for MRSA [9]: 0.195 µg/mL
Antibacterial Activity for MRSA [10]: 0.391 µg/mL
Antibacterial Activity for MRSA [11]: 0.391 µg/mL
Antibacterial Activity for MRSA [12]: 0.098 µg/mL
Antibacterial Activity for MRSA [13]: 0.391 µg/mL
Antibacterial Activity for MRSA [14]: 0.391 µg/mL
Antibacterial Activity for MRSA [15]: 0.195 µg/mL
Antibacterial Activity for MRSA [16]: 0.391 µg/mL
Antibacterial Activity for MRSA [17]: 0.195 µg/mL
Antibacterial Activity for MRSA [18]: 0.195 µg/mL
Antibacterial Activity for MRSA [19]: 0.098 µg/mL
